Assay results published in the supplement of paper PMC12137928.
Counter-ions that a name gives are not always drawn.

Tested on: HCT116
Settings: 72 h
Summary of the method: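 In 1536-well plates, 250 HCT116 cells per well were seeded and left for 5 h to attach. Luminescence from CellTiter-Glo was set against vehicle (0%) and positive control (-100%), and pattern correction was applied. IC50 and maximal efficacy come from four-parameter Hill fitting.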

SMILES | IC50 cell viability (ICRF193 0 nM) [µM] | IC50 cell viability (ICRF193 200 nM) [µM]
CCCCc1ncc(/C=C(\Cc2cccs2)C(=O)O)n1Cc1ccc(C(=O)O)cc1 [Eprosartan mesylate] | > 45.8 | > 45.8
C[C@@H](CO)NC(=O)[C@@H]1C=C2c3cccc4[nH]cc(c34)C[C@H]2N(C)C1 [Ergobasine] | > 45.8 | > 45.8
O=C1OC2(c3ccccc31)c1cc(I)c(O)c(I)c1Oc1c2cc(I)c(O)c1I [Erythrosin B] | > 45.8 | > 45.8
O=c1ccc2cc(O[C@@H]3O[C@H](CO)[C@@H](O)[C@H](O)[C@H]3O)c(O)cc2o1 [Esculin hydrate] | > 45.8 | > 45.8
C[C@]12CC[C@@H]3c4ccc(OC(=O)N(CCCl)CCCl)cc4CC[C@H]3[C@@H]1CC[C@@H]2O [Estramustine] | > 45.8 | > 45.8
CN1CCN(C(=O)O[C@H]2c3nccnc3C(=O)N2c2ccc(Cl)cn2)CC1 [Eszopiclone] | > 45.8 | > 45.8
CCN(C)C(C)C(O)c1ccccc1 (stereo unspecified) [Etafedrine hydrochloride] | > 45.8 | > 45.8
CCN(CC)CCOc1ccccc1C(=O)CCc1ccccc1 [Etafenone] | > 45.8 | > 45.8
CC[C@@H](CO)NCCN[C@@H](CC)CO [Ethambutol dihydrochloride] | > 45.8 | > 45.8
C#CC(O)(/C=C/Cl)CC (stereo unspecified) [Ethchlorvynol] | > 45.8 | > 45.8
CCC1Nc2cc(Cl)c(S(N)(=O)=O)cc2S(=O)(=O)N1 (stereo unspecified) [Ethiazide] | > 45.8 | > 45.8
CCc1cc(C(N)=S)ccn1 [Ethionamide] | > 45.8 | > 45.8
CCOC(=O)C1(c2ccccc2)CCCN(C)CC1 (stereo unspecified) [Ethoheptazine hydrochloride] | > 45.8 | > 45.8
CCN(CC)C(C)CN1c2ccccc2Sc2ccccc21 (stereo unspecified) [Ethopropazine hydrochloride] | > 45.8 | > 45.8
CCN1C(=O)NC(c2ccccc2)C1=O (stereo unspecified) [Ethotoin] | > 45.8 | > 45.8
CCOc1ccc2c(c1)C(C)=CC(C)(C)N2 [Ethoxyquin] | > 45.8 | > 45.8
CCOc1ccc2nc(S(N)(=O)=O)sc2c1 [Ethoxzolamide] | > 45.8 | > 45.8
CCOC(=O)c1cccc(N)c1 [Ethyl 3-aminobenzoate methanesulfonic acid salt] | > 45.8 | > 45.8
CCCCC/C=C\C/C=C\CCCCCCCC(=O)OCC [Ethyl linoleate] | > 45.8 | > 45.8

SMILES | IC50 cell viability (ICRF193 0 nM) [µM] | IC50 cell viability (ICRF193 200 nM) [µM]
CCOC(=O)c1ccccc1O [Ethyl salicylate] | > 45.8 | > 45.8
CC[C@]1(O)CC[C@H]2[C@@H]3CCC4=CCCC[C@@H]4[C@H]3CC[C@@]21C [Ethylestrenol] | > 45.8 | > 45.8
CCOc1ccc2c3c1O[C@H]1[C@@H](O)C=C[C@H]4[C@@H](C2)N(C)CC[C@@]341 [Ethylmorphine] | > 45.8 | > 45.8
CCOC(=O)c1ccc(O)cc1 [Ethylparaben] | > 45.8 | > 45.8
CC(O)(P(=O)(O)O)P(=O)(O)O [Etidronate disodium] | > 45.8 | > 45.8
CCC(CN)=C(c1ccccc1)c1ccccc1 [Etifelmine hydrochloride] | > 45.8 | > 45.8
CCNCC(O)c1cccc(O)c1 (stereo unspecified) [Etilefrine hydrochloride] | > 45.8 | > 45.8
CCc1cc2c(s1)-n1c(C)nnc1CN=C2c1ccccc1Cl [Etizolam] | > 45.8 | > 45.8
CCOC(=O)c1cncn1[C@H](C)c1ccccc1 [Etomidate] | > 45.8 | > 45.8
CCN1C(=O)c2ccccc2C1Nc1ccc(OCCN2CCCCC2)cc1 (stereo unspecified) [Etomidoline] | > 45.8 | > 45.8
Cc1ccc(-c2ncc(Cl)cc2-c2ccc(S(C)(=O)=O)cc2)cn1 [Etoricoxib] | > 45.8 | > 45.8
C=CCc1ccc(O)c(OC)c1 [Eugenol] | > 45.8 | > 45.8
CCCCCCOc1ccccc1C(N)=O [Exalamide] | > 45.8 | > 45.8
C=C1C[C@@H]2[C@H](CC[C@]3(C)C(=O)CC[C@@H]23)[C@@]2(C)C=CC(=O)C=C12 [Exemestane] | > 45.8 | > 45.8
O=C1[C@H](CC[C@H](O)c2ccc(F)cc2)[C@@H](c2ccc(O)cc2)N1c1ccc(F)cc1 [Ezetimibe] | > 45.8 | > 45.8
O=c1[nH]c2ccccc2n1CCN1CCN(c2cccc(C(F)(F)F)c2)CC1 [FLIBANSERIN] | > 45.8 | > 45.8
CCCCCCCCCC(=O)OCCN1CCN(CC/C=C2\c3ccccc3Sc3ccc(C(F)(F)F)cc32)CC1 [FLUPENTIXOL DECANOATE] | > 45.8 | > 45.8
C[C@@H]1O[C@@H]1P(=O)(O)O [FOSFOMYCIN] | > 45.8 | > 45.8

The next lines start with the values.

IC50 cell viability (ICRF193 0 nM) [µM] | IC50 cell viability (ICRF193 200 nM) [µM] | SMILES
> 45.8 | > 45.8 | CC(C)(C)NC(=O)[C@H]1CC[C@H]2[C@@H]3CC=C4C=C(C(=O)O)CC[C@]4(C)[C@H]3CC[C@]12C [Epristeride]
> 45.8 | > 45.8 | O=C(C1CCCCC1)N1CC(=O)N2CCCc3ccccc3C2C1 (stereo unspecified) [Epsiprantel]
> 45.8 | > 45.8 | N=C(N)NCCCC[C@@H]1NC(=O)CCSSC[C@@H](C(N)=O)NC(=O)[C@@H]2CCCN2C(=O)[C@H](Cc2c[nH]c3ccccc23)NC(=O)[C@H](CC(=O)O)NC(=O)CNC1=O [Eptifibatide]
> 45.8 | > 45.8 | O=C(O)CSCC(=O)NC1CCSC1=O (stereo unspecified) [Erdosteine]
> 45.8 | > 45.8 | C[C@@H](O)[C@H]1C(=O)N2C(C(=O)O)=C(S[C@@H]3CN[C@H](C(=O)Nc4cccc(C(=O)O)c4)C3)[C@H](C)[C@H]12 [Ertapenem]
> 45.8 | > 45.8 | CCC(=O)O[C@H]1[C@H](O[C@@H]2[C@@H](C)[C@H](O[C@H]3C[C@@](C)(OC)[C@@H](O)[C@H](C)O3)[C@@H](C)C(=O)O[C@H](CC)[C@@](C)(O)[C@H](O)[C@@H](C)C(=O)[C@H](C)C[C@@]2(C)O)O[C@H](C)C[C@@H]1N(C)C [Erythromycin propionate]
> 45.8 | > 45.8 | CC(=O)O[C@H]1Cc2ccccc2N(C(N)=O)c2ccccc21 [Eslicarbazepine (acetate)]
> 45.8 | > 45.8 | COC(=O)CCc1ccc(OCC(O)CNC(C)C)cc1 (stereo unspecified) [Esmolol hydrochloride]
> 45.8 | > 45.8 | CC(=O)SCC(CC(=O)c1ccc(C)cc1)C(=O)O (stereo unspecified) [Esonarimod]
> 45.8 | > 45.8 | C[C@]12CC[C@@H]3c4ccc(O)cc4CC[C@H]3[C@@H]1CC[C@@H]2OC(=O)CCC1CCCC1 [Estradiol cypionate]
> 45.8 | > 45.8 | CCCCCCC(=O)O[C@H]1CC[C@H]2[C@@H]3CCc4cc(O)ccc4[C@H]3CC[C@]12C [Estradiol enanthate]
> 45.8 | > 45.8 | CC(=O)O[C@@H]1C[C@H]2[C@@H]3CCc4cc(OC(=O)c5ccccc5)ccc4[C@H]3CC[C@]2(C)[C@H]1OC(C)=O [Estriol benzoate diacetate]
> 45.8 | > 45.8 | CCC(=O)Oc1ccc2c(c1)CC[C@@H]1[C@@H]2CC[C@@]2(C)[C@H]1C[C@@H](OC(=O)CC)[C@@H]2OC(=O)CC [Estriol tripropionate]
> 45.8 | > 45.8 | C[C@]12CC[C@@H]3c4ccc(O)cc4CC[C@H]3[C@@H]1C[C@@H](O)[C@@H]2O [Estriol]
> 45.8 | > 45.8 | C[C@]12CC[C@@H]3c4ccc(O)cc4CC[C@H]3[C@@H]1CCC2=O [Estrone]
> 45.8 | > 45.8 | C=C(CC)C(=O)c1ccc(OCC(=O)O)c(Cl)c1Cl [Ethacrynic acid]
> 45.8 | > 45.8 | CCC1(C)CC(=O)NC1=O (stereo unspecified) [Ethosuximide]
> 45.8 | > 45.8 | CCCN(CC)C(CC)C(=O)Nc1c(C)cccc1C (stereo unspecified) [Etidocaine]
> 45.8 | > 45.8 | CCc1cccc(CC)c1NC(=O)CN(CC(=O)O)CC(=O)O [Etifenin]
> 45.8 | > 45.8 | CCc1cccc2c3c([nH]c12)C(CC)(CC(=O)O)OCC3 (stereo unspecified) [Etodolac]
> 45.8 | > 45.8 | C#C[C@]1(O)CC[C@H]2[C@@H]3CCC4=CC(=O)CC[C@@H]4[C@H]3C(=C)C[C@@]21CC [Etonogestrel]
> 45.8 | > 45.8 | CCOC(=O)/C=C(C)/C=C/C=C(C)/C=C/c1c(C)cc(OC)c(C)c1C [Etretinate]
> 45.8 | > 45.8 | CO[C@H]1C[C@@H]2CC[C@@H](C)[C@@](O)(O2)C(=O)C(=O)N2CCCC[C@H]2C(=O)O[C@H]([C@H](C)C[C@@H]2CC[C@@H](OCCO)[C@H](OC)C2)CC(=O)[C@H](C)/C=C(\C)[C@@H](O)[C@@H](OC)C(=O)[C@H](C)C[C@H](C)/C=C/C=C/C=C/1C [Everolimus]
> 45.8 | > 45.8 | C/C(=N\O)C(C)NCC(C)(C)CNC(C)/C(C)=N/O (stereo unspecified) [Exametazime]
> 45.8 | > 45.8 | CC(C)C(=O)Oc1ccc(CO)cc1[C@H](CCN(C(C)C)C(C)C)c1ccccc1 [FESOTERODINE FUMARATE]
> 45.8 | > 45.8 | CC1(C)OC(=O)C(OCC2CC2)=C1c1ccc(S(C)(=O)=O)cc1 [FIROCOXIB]
